Laboratory results reported in US20050074744A1, “Assays for evaluating anti-osteoarthritic activity” (priority 2003, published 2005).

Columns and labels:
[1] = system: articular cartilage grafts (ACGs); test: Histological assessment (toluidine blue) of proteoglycan and collagen levels in ACGs; type: cell-based, human; settings: ACG; for presence or loss of proteoglycans, toluidine blue stain: 24 hours
Method: (§1) ACGs were constructed from the human chondrocyte strain Cc 05912 1°, which was isolated and propagated in Dubelcco's-Modified Eagle's Medium with. 10% fetal bovine serum (DMEM/10% FBS). After propagation, the cells were used to assemble ACGs on type II collagen coated Millipore Millicell-CM filters at a density of 2 million cells/cm^2, using the procedure described in U.S. Pat. No. 5,326,357. The ACGs were grown in defined ACG media (DMEM/2×ITS×(Invitrogen # 51500-056), 2% Human Serum Albumin) supplemented with 5 ng/ml TGF-β2 and 100 μg/ml ascorbic acid. After three weeks in culture, the levels of aggrecan and collagen type II expression in the ACGs peaked and leveled off.
After three weeks, the IL-1β (R&D Systems # 201-LB) and DBH incubations began. All of the preincubations and subsequent incubations were performed in DMEM. First all of the ACGs were washed twice with DMEM. Sample 1 ACGs were harvested for histology and gene expression analysis at the onset of the experiment. Next, 2 hour preincubations were performed on four groups, in triplicate for both histology and gene expression analysis. Sample 2 ACGs received 250 μl of DMEM to the inside and outside of the ACG. Sample 3 ACGs received the same. Sample 4 ACGs received 5 μm DBH in the same volumes as the other groups to the inside and outside of the Millicell filter containing the ACGs. Sample 5 ACGs received DMSO in the same volume as the DBH group as a vehicle control. The ACGs were then incubated for 2 hours. After the 2 hour preincubation with DBH, IL-1β incubation was added. Sample 2 received another 250 μl of DMEM in addition to the 250 μl that was added at the preincubation step. Sample 3 received 250 μl, inside and out, of DMEM with IL-1β at a final concentration of 2 ng/ml. Sample 4 also received IL-1β with the addition of more DBH to compensate for the volume change of DMEM to keep the concentration of 5 μm. Sample 5 also received IL-1β with an adjustment of the DMSO levels to compensate for the volume change of the DMEM.
After incubation with-lL-1β for 24 hours, a group of the ACGs from Example 2 were fixed in 10% neutral buffered formalin and embedded in paraffin. Sections were cut and stained with toluidine blue to assess the presence or loss of proteoglycans in the ACGs.

[2] = system: stromelysin RNA; test: Quantitative real-time RT-PCR of stromelysin RNA in IL-1β-treated ACGs; type: cell-based, human; settings: ACG, 24 hours
Method: as §1, with “off. […]” for “off.”
(§2) After incubation with IL-1β for 24 hours, a group of the ACGs from Example 2 were harvested for quantitative real-time RT-PCR by snap freezing them in LN2. For quantitative real-time RT-PCR total RNA was isolated from the ACGs with TRIzol™ Reagent (Invitrogen # 15596-026) with subsequent cleanup using the Qiagen Rneasy™ Mini Kit (Qiagen # 74104). Contaminating DNA was removed from total RNA samples using the Ambion DNA-free kit (Ambion # 1906). cDNA synthesis was performed on 1 […] of each sample using the Amersham Ready-To-Go You-Prime First-Strand Beads™ (Amersham # 27-9264-01) primed with oligo dT. Reverse transcriptase activity was measured using the PicoGreen™ dsDNA quantitation Kit (Molecular Probes # P-7589). […]

[3] = system: collagenase 3 RNA; test: Quantitative real-time RT-PCR of collagenase 3 RNA in IL-1β-treated ACGs; type: cell-based, human; settings: ACG, 24 hours
Method: as §1, with “off. […]” for “off.”
as §2

[4] = system: Hartley guinea pig model of osteoarthritis; settings: U.S. Pat. No. 5,591,740; cited from earlier work
[5] = system: aggrecanase 2 RNA; test: Quantitative real-time RT-PCR of aggrecanase 2 RNA in IL-1β-treated ACGs; type: cell-based, human; settings: ACG, 24 hours
Method: as §1, with “off. […]” for “off.”
as §2

[6] = system: chondrocyte monolayer cultures; settings: U.S. Pat. No. 5,591,740; cited from earlier work
[7] = system: aggrecanase 1 RNA; test: Quantitative real-time RT-PCR of aggrecanase 1 RNA in IL-1β-treated ACGs; type: cell-based, human; settings: ACG, 24 hours
Method: as §1, with “off. […]” for “off.”
as §2

[8] = system: collagenase 1 RNA; test: Quantitative real-time RT-PCR of collagenase 1 RNA in IL-1β-treated ACGs; type: cell-based, human; settings: ACG, 24 hours
Method: as §1, with “off. […]” for “off.”
as §2

[9] = 5 μm DBH (2 hour preincubation) + IL-1β 2 ng/ml

Row | Compound | presence or loss of proteoglycans, toluidine blue stain ([1]; IL-1β 2 ng/ml and 5 μm DBH) | loss of proteoglycans and collagen, histological staining ([1]; IL-1β and DBH) | % reduction of IL-1β-induced gene expression with DBH, stromelysin [2, 9] [%] | % reduction of IL-1β-induced gene expression with DBH, collagenase 3 [3, 9] [%] | preexisting cartilage damage [4] | % reduction of IL-1β-induced gene expression with DBH, aggrecanase 2 [5, 9] [%] | IL-1 induced degradation of matrix proteins [6] | % reduction of IL-1β-induced gene expression with DBH, aggrecanase 1 [7, 9] [%] | % reduction of IL-1β-induced gene expression with DBH, collagenase 1 [8, 9] [%] | presence or loss of proteoglycans, toluidine blue stain ([1]; IL-1β 2 ng/ml alone) | loss of proteoglycans and collagen, histological staining ([1]; IL-1β alone) | Fold Induction by IL-1β, stromelysin ([2]; IL-1β 2 ng/ml, RNA by Q RT-PCR) | Fold Induction by IL-1β, collagenase 3 ([3]; IL-1β 2 ng/ml, RNA by Q RT-PCR) | Fold Induction by IL-1β, aggrecanase 2 ([5]; IL-1β 2 ng/ml, RNA by Q RT-PCR) | Fold Induction by IL-1β, aggrecanase 1 ([7]; IL-1β 2 ng/ml, RNA by Q RT-PCR) | Fold Induction by IL-1β, collagenase 1 ([8]; IL-1β 2 ng/ml, RNA by Q RT-PCR)
1 | NC1=N/C(=C2/CCNC(=O)c3[nH]ccc32)C(=O)N1 [DBH, debromohymenialdesine] | decreased loss of proteoglycans | reduces the loss of proteoglycans and collagen | 57 | 55 | reduces preexisting cartilage damage | 56 | inhibits IL-1 induced degradation of matrix proteins | 65 | 66 |  |  |  |  |  |  | 
2 | IL-1β: inflammatory cytokine (R&D Systems # 201-LB) used to induce osteoarthritic cartilage damage in ACGs |  |  |  |  |  |  |  |  |  | marked loss of proteoglycans | causes the loss of proteoglycans and collagen | 168 | 17 | 4 | 4 | 183
